From publication PMC8165439, “Chymase Dependent Pathway of Angiotensin II Generation and Rapeseed Derived Peptides for Antihypertensive Treatment of Spontaneously Hypertensive Rats” (Frontiers in Pharmacology, 2021)
Blank lines part the entries; values can stand above or below the compound they belong to. Where a SMILES comes first, the peptide text is derived from it. Where no end group is shown, it is not given here.

What was measured:
[1] = target: T1, Human chymase (Homo sapiens, UniProt P23946); conditions: pH 7.8
T1 sequence (P23946 22-247): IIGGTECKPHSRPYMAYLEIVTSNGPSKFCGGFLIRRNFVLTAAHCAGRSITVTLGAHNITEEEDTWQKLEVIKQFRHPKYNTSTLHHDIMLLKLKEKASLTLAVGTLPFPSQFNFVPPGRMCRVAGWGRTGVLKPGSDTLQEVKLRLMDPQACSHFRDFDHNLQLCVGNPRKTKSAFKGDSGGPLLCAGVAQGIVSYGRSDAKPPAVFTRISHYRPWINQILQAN
Experimental: Chymase digestion of ANG I in the presence of synthetized peptides was performed in vitro. The concentration of remaining ANG I was calculated in order to assess the ability of peptides to inhibit chymase.
Human chymase (72 units/mg protein; 259 µg protein/ml, vial volume 187 μl, Sigma) stock solution was prepared by diluting the initial sample of enzyme with Tris*HCl buffer (0.27 mM Tris*HCl, pH 7.8 and 150 mM NaCl) to obtain the final chymase concentration of 1.379 μg/ml.
Reactions (during which ANG I was converted to ANG II through removal of two C-terminal residues) were stopped at the desired times (0, 10, 20, 30, 40, 60, 80 min) by addition of 10 μl of 98% FA. […] Positive electrospray (ES+) was used as the ionization method for mass spectrometry.
The inhibitory effect of each peptide on chymase activity was expressed as remaining amount of substrate vs. time of digestion and presented as percentage ratio and calculated by the following formula [ANG It=X min/ANG It=0 min]x100% where ANG It=X min is the peak area of angiotensin I at desired time of digestion, ANG It=0 min is the peak area of angiotensin I at 0 min of digestion.

[2] = tested on: spontaneously hypertensive rats (SHR); assay: Metabolic parameters in metabolic cages during chronic treatment; assay type: in vivo, rat; conditions: mean ± SEM
Experimental: (§1) Systolic and diastolic blood pressure (SBP and DBP, respectively) and heart rate (HR) were measured in conscious unrestrained rats by telemetry technique, once a week for 24 h. 24 hour observations in metabolic cages (Tecniplast S. p.A. Buguggiate, Italy) were performed weekly. The diuresis, weight of feces, food and water intake were measured; urine and blood samples were collected on day 0, 7th and 14th, and were centrifuged at 1200 g (blood for 15 min and urine for 5 min), then the samples were stored at –80°C until analysis.
(§2) On day 0 all animals received saline (0.9% NaCl) and then, for 14 consecutive days, the substance tested. Chymostatin (CH, 2 mg/kg/day) was dissolved in DMSO and then diluted with PBS (final concentration of DMSO was 0.15%). Peptides RIY (7.5 mg/kg/day) and VWIS (12.5 mg/kg/day) were dissolved in saline (0.9% NaCl, S). The substances were administered through the femoral vein during 10 min in the volume of 0.5 ml to young SHR (infusion rate: 3 ml/h) and 1 ml to adult rats (infusion rate: 6 ml/h). Control rats received solvents (either DMSO or saline) in the same volume.
(§3) Urine volume was determined by gravimetric method. Sodium and potassium concentration in urine and plasma were measured by flame photometry (PFP7/C, Jenway Ltd, Stone, United Kingdom). Urine and plasma osmolality were measured by freezing point depression (Osmomat® 030 M, Gonotec, Berlin, Germany). These parameters were used to determine the excretion rates of total solutes (UosmV), sodium (UNaV) and potassium (UKV). Commercially available ELISA kits were used to measure nitric oxide metabolites (NOx, SunRed, Shanghai) and albumin (Albumin, ICL, Portland) concentration in urine. Excretion rate of NOx (UNOxV) and albumin (UAE) were calculated.

[3] = tested on: spontaneously hypertensive rats (SHR); assay: Plasma and urine parameters during chronic treatment; assay type: in vivo, rat; conditions: mean ± SEM
Experimental: as §1, §2, §3

[4] = tested on: ACE; conditions: ref Marczak et al. (2003); cited from earlier work
[5] = tested on: adult SHR; conditions: tail cuff method, ref Kirimura et al. (2005); cited from earlier work
Excerpt: [Kirimura et al. (2005)], studied NK3201, another chymase inhibitor. […] However, the study by [Kirimura et al. (2005)], in addition to the obvious difference in the protocol (single oral dose vs. our chronic intravenous infusion) has another limitation: the tail cuff method was used to measure blood pressure.

[6] = adult SHR (SHR-16), day 0 (baseline)
[7] = adult SHR (SHR-16), day 7 of daily iv CH 2, RIY 7.5, VWIS 12.5 mg/kg/day
[8] = adult SHR (SHR-16), day 7 of daily iv treatment
[9] = adult SHR (SHR-16), day 14 of daily iv CH 2, RIY 7.5, VWIS 12.5 mg/kg/day
[10] = adult SHR (SHR-16), day 14 of daily iv treatment
[11] = young SHR (SHR-6), day 0 (baseline), CH n=8-10, RIY n=5, VWIS n=5-6
[12] = young SHR (SHR-6), day 0 (baseline)
[13] = young SHR (SHR-6), day 7 of daily iv CH 2, RIY 7.5, VWIS 12.5 mg/kg/day
[14] = young SHR (SHR-6), day 7 of daily iv treatment
[15] = young SHR (SHR-6), day 14 of daily iv CH 2, RIY 7.5, VWIS 12.5 mg/kg/day
[16] = young SHR (SHR-6), day 14 of daily iv treatment

half-life time of ANG I (T1/2) in human chymase solution in absence of inhibitory peptides [1]: 16 min
Compound: DRVYIHPFHL [ANG I, angiotensin I]

Diuresis [2, 6]: 7.1 ± 1.4 µL/min
Faeces [2, 6]: 11±1 g/24 h
Food intake [2, 6]: 20±1 g/24 h
Water intake [2, 6]: 30±1 g/24 h
Diuresis [2, 8]: 7.0 ± 1.3 µL/min
Faeces [2, 8]: 11±2 g/24 h
Food intake [2, 8]: 22±1 g/24 h
Water intake [2, 8]: 34±1 g/24 h
Diuresis [2, 10]: 8.0 ± 1.8 µL/min
Faeces [2, 10]: 11±1 g/24 h
Food intake [2, 10]: 19±1 g/24 h
Water intake [2, 10]: 32±2 g/24 h
Diuresis [2, 12]: 6.3 ± 0.8 µL/min
Faeces [2, 12]: 10±1 g/24 h
Food intake [2, 12]: 16±1 g/24 h
Water intake [2, 12]: 22±2 g/24 h
Diuresis [2, 14]: 7.2 ± 0.7 µL/min
Faeces [2, 14]: 13±1 g/24 h
Food intake [2, 14]: 19±1 g/24 h
Water intake [2, 14]: 32±7 g/24 h
Diuresis [2, 16]: 8.5 ± 0.8 µL/min
Faeces [2, 16]: 14±1 g/24 h
Food intake [2, 16]: 20±1 g/24 h
Water intake [2, 16]: 30±2 g/24 h
Plasma osmolality ([3]; adult SHR (SHR-16), day 0 (baseline), CH n=5-8, RIY n=5-6, VWIS n=5-6): 313±1 mOsm/l
Plasma K+ concentration [3, 6]: 4.20 ± 0.18 mmol/L
Plasma Na+ concentration [3, 6]: 133.0 ± 0.8 mmol/L
Potassium excretion [3, 6]: 0.97 ± 0.21 µmol/min
Sodium excretion [3, 6]: 0.90 ± 0.18 µmol/min
Total solute excretion [3, 6]: 7.52±1.54 µOsm/min
Plasma osmolality [3, 7]: 308±1 mOsm/l
Plasma K+ concentration [3, 8]: 3.78 ± 0.31 mmol/L
Plasma Na+ concentration [3, 8]: 130.2 ± 4.5 mmol/L
Potassium excretion [3, 8]: 1.26 ± 0.27 µmol/min
Sodium excretion [3, 8]: 1.02 ± 0.19 µmol/min
Total solute excretion [3, 8]: 9.90±2.21 µOsm/min
Plasma osmolality [3, 9]: 302±2 mOsm/l
Plasma K+ concentration [3, 10]: 3.96 ± 0.06 mmol/L
Plasma Na+ concentration [3, 10]: 135.8 ± 4.7 mmol/L
Potassium excretion [3, 10]: 0.95 ± 0.21 µmol/min
Sodium excretion [3, 10]: 0.81 ± 0.16 µmol/min
Total solute excretion [3, 10]: 10.42±2.06 µOsm/min
Plasma osmolality [3, 11]: 295±2 mOsm/l
Plasma K+ concentration [3, 12]: 4.42 ± 0.20 mmol/L
Plasma Na+ concentration [3, 12]: 131.8 ± 3.0 mmol/L
Potassium excretion [3, 12]: 0.73 ± 0.20 µmol/min
Sodium excretion [3, 12]: 0.69 ± 0.13 µmol/min
Total solute excretion [3, 12]: 5.48±1.40 µOsm/min
Plasma osmolality [3, 13]: 297±1 mOsm/l
Plasma K+ concentration [3, 14]: 4.45 ± 0.16 mmol/L
Plasma Na+ concentration [3, 14]: 133.40 ± 5.6 mmol/L
Potassium excretion [3, 14]: 1.75 ± 0.15 µmol/min
Sodium excretion [3, 14]: 0.84 ± 0.13 µmol/min
Total solute excretion [3, 14]: 7.11±0.95 µOsm/min
Plasma osmolality [3, 15]: 293±3 mOsm/l
Plasma K+ concentration [3, 16]: 4.33 ± 0.14 mmol/L
Plasma Na+ concentration [3, 16]: 131.4 ± 4.5 mmol/L
Potassium excretion [3, 16]: 0.72 ± 0.11 µmol/min
Sodium excretion [3, 16]: 0.63 ± 0.08 µmol/min
Total solute excretion [3, 16]: 7.16±0.75 µOsm/min
Compound: CC[C@H](C)[C@H](NC(=O)[C@H](Cc1c[nH]c2ccccc12)NC(=O)[C@@H](N)C(C)C)C(=O)N[C@@H](CO)C(=O)O [VWIS, Valine-Tryptophan-Isoleucine-Serine] (H-VWIS-OH)
Body weight ([2]; adult SHR (SHR-16), day 0 (baseline), CH n=8, RIY n=5-6, VWIS n=5-6): 304 ± 8 g
Body weight [2, 7]: 312 ± 11 g
Body weight [2, 9]: 329 ± 11 g
Body weight [2, 11]: 110 ± 11 g
Body weight [2, 13]: 145 ± 13 g
Body weight [2, 15]: 174 ± 13 g
stability / conversion to dipeptide in the presence of ACE [4]: transformed rapidly to dipeptide VW

Compound: O=CNc1cnc(-c2ccccc2)n(CC(=O)NC(Cc2ccccc2)C(=O)C(=O)CCCOc2ccccn2)c1=O (stereo not drawn) [NK3201]
blood pressure after a single oral dose [5]: did not lower blood pressure
